Target: T1, human μ-opiate receptor (Homo sapiens, UniProt P35372)
T1 construct: purchased PerkinElmer Life Sciences, Zaventem, Belgium RB-HOM; host or cells: CHO-K1 cells (recombinant expression; membrane preparation)
T1 sequence (P35372 whole entry): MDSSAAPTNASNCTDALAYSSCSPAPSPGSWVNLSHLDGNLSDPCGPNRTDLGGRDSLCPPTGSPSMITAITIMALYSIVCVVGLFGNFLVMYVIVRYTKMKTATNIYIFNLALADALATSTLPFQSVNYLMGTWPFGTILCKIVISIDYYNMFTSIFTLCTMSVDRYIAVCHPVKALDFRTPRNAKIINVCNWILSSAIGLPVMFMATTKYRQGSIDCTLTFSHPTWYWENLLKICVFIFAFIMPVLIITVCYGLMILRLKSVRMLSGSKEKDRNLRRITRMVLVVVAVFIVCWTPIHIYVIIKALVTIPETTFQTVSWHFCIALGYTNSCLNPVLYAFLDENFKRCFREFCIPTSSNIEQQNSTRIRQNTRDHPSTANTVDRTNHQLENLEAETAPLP
Experiment: Affinity for the human μ-opiate receptor ([3H]-naloxone displacement, SPA)
Details: Table 2, Examples 11-161; test substance 1 μmole/l; inhibition of specific [3H]-naloxone binding; CHO-K1 membranes; read-out: μ-Opioid receptor, % inhibition [1 μM]
Procedure, shortened: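 CHO-K1 membranes expressing the receptor, incubated 90 min at room temperature with 1 nmol/l [3H]-naloxone and WGA-SPA beads in 50 mmol/l Tris-HCl with 0.06% BSA. Non-specific binding defined with 100 μmol/l naloxone. Value is % inhibition of specific binding at 1 μmol/l test substance.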
Compound `CCCN1C=NC(CCC(=O)OC)(C(=O)OC)C1CC1CCC(C(c2cccc(F)c2)N(C)C)CC1` (stereo not shown) [Example 157, 5-{4-[dimethylamino-(3-fluorophenyl)-methyl]-cyclohexylmethyl}-4-(2-methoxycarbonylethyl)-1-propyl-4,5-dihydro-1H-imidazole-4-carboxylic acid methyl ester] has an inhibition at 1 µM of 91%. With `CCCCN1C=NC(CSC)(C(=O)OC)C1CC1CCC(C(c2cccc(F)c2)N(C)C)CC1` (stereo not shown) [Example 74, 1-butyl-5-{4-[dimethylamino-(3-fluorophenyl)-methyl]-cyclohexylmethyl}-4-methylsulfanylmethyl-4,5-dihydro-1H-imidazole-4-carboxylic acid methyl ester] the inhibition at 1 µM was 95%. Compound `CCCCN1C=NC(CCCC)(C(=O)OC)C1CC1CCC(C(c2ccc(Cl)cc2)N(C)C)CC1` (stereo not shown) [Example 36, 1,4-dibutyl-5-{4-[(4-chlorophenyl)-dimethylaminomethyl]-cyclohexylmethyl}-4,5-dihydro-1H-imidazole-4-carboxylic acid methyl ester] has an inhibition at 1 µM of 97%. In the case of `CCCN1C=NC(Cc2ccc(Cl)cc2)(C(=O)OC)C1C1CCC(C(c2ccc(Cl)cc2)N(C)C)CC1` (stereo not shown) [Example 25, 4-(4-chlorobenzyl)-5-{4-[(4-chlorophenyl)-dimethylaminomethyl]-cyclohexyl}-1-propyl-4,5-dihydro-1H-imidazole-4-carboxylic acid methyl ester], the inhibition at 1 µM is reported as 83%. Compound `CCCCN1C=NC(CCSC)(C(=O)OC)C1CC1CCC(C(c2cccc(F)c2)N(C)C)CC1` (stereo not shown) [Example 123, 1-butyl-5-{4-[dimethylamino-(3-fluorophenyl)-methyl]-cyclohexylmethyl}-4-(2-methylsulfanylethyl)-4,5-dihydro-1H-imidazole-4-carboxylic acid methyl ester] has an inhibition at 1 µM of 98%. For `CCCCC1(C(=O)OC)N=CN(C2CCCCC2)C1CC1CCC(C(c2ccc(Cl)cc2)N(C)C)CC1` (stereo not shown) [Example 19, 4-butyl-5-{4-[(4-chlorophenyl)-dimethylaminomethyl]-cyclohexylmethyl}-1-cyclohexyl-4,5-dihydro-1H-imidazole-4-carboxylic acid methyl ester], the inhibition at 1 µM was 96%. Work on `CCCN1C=NC(CCC)(C(=O)OC)C1CC1CCC(C(CCc2ccccc2)N(C)C)CC1` (stereo not shown) [Example 120, 5-[4-(1-dimethylamino-3-phenylpropyl)-cyclohexylmethyl]-1,4-dipropyl-4,5-dihydro-1H-imidazole-imidazole-4-carboxylic acid methyl ester] yielded an inhibition at 1 µM of 62%. `CCCCN1C=NC(Cc2ccc(Cl)cc2)(C(=O)OC)C1C1CCC(C(c2ccc(Cl)cc2)N(C)C)CC1` (stereo not shown) [Example 32, 1-butyl-4-(4-chlorobenzyl)-5-{4-[(4-chlorophenyl)-dimethylaminomethyl]-cyclohexyl}-4,5-dihydro-1H-imidazole-4-carboxylic acid methyl ester] showed an inhibition at 1 µM of 74%. Work on `COC(=O)CCC1(C(=O)OC)N=CN(CCc2ccccc2)C1C1CCC(C(c2cccc(F)c2)N(C)C)CC1` (stereo not shown) [Example 91, 5-{4-[dimethylamino-(3-fluorophenyl)-methyl]-cyclohexyl}-4-(2-methoxycarbonylethyl)-1-phenethyl-4,5-dihydro-1H-imidazole-4-carboxylic acid methyl ester] yielded an inhibition at 1 µM of 85%. With `CCCCN1C=NC(CSCc2ccccc2)(C(=O)OC)C1C1CCC(C(c2cccc(F)c2)N(C)C)CC1` (stereo not shown) [Example 67, 4-benzylsulfanylmethyl-1-butyl-5-{4-[dimethylamino-(3-fluorophenyl)-methyl]-cyclohexyl}-4,5-dihydro-1H-imidazole-4-carboxylic acid methyl ester] the inhibition at 1 µM was 88%. Work on `CCCCN1C=NC(CC(C)C)(C(=O)OC)C1CC1CCC(C(c2ccc(Cl)cc2)N(C)C)CC1` (stereo not shown) [Example 34, 1-butyl-5-{4-[(4-chlorophenyl)-dimethylaminomethyl]-cyclohexylmethyl}-4-isobutyl-4,5-dihydro-1H-imidazole-4-carboxylic acid methyl ester] yielded an inhibition at 1 µM of 98%. With `COC(=O)C1(CC(C)C)N=CN(C2CCCCC2)C1CC1CCC(C(c2ccc(Cl)cc2)N(C)C)CC1` (stereo not shown) [Example 17, 5-{4-[(4-chlorophenyl)-dimethylaminomethyl]-cyclohexylmethyl}-1-cyclohexyl-4-isobutyl-4,5-dihydro-1H-imidazole-4-carboxylic acid methyl ester] the inhibition at 1 µM was 96%.

Test system: not given
Experiment: not given
Details: not given
With `CN(C)C(c1cccc(F)c1)C1CCC(C=O)CC1` (stereo not shown) the melting point was 40 to 43 °C.

From patent US7728028B2, “Substituted imidazoline compounds” (Gruenenthal GmbH, priority 2005, dated 2010)
